These results are taken from US8476455B2, “1-N-phenyl-amino-1h-imidazole derivatives and pharmaceutical compositions containing them” (Laboratoire Theramex, priority 2003, dated 2013).

What is called IC50 is the point on the concentration scale where inhibition reaches its midpoint. As a reminder, the melting point is the temperature, or range, at which the solid turns liquid.

In data set [1] the target is T1, human aromatase (Homo sapiens, UniProt P11511).
T1 construct: The JEG-3 cell line, derived from a human placental choriocarcinoma, constitutively overexpresses human aromatase; endogenous in cells; host or cells: JEG-3 (human placental choriocarcinoma)
T1 sequence (P11511 1-503): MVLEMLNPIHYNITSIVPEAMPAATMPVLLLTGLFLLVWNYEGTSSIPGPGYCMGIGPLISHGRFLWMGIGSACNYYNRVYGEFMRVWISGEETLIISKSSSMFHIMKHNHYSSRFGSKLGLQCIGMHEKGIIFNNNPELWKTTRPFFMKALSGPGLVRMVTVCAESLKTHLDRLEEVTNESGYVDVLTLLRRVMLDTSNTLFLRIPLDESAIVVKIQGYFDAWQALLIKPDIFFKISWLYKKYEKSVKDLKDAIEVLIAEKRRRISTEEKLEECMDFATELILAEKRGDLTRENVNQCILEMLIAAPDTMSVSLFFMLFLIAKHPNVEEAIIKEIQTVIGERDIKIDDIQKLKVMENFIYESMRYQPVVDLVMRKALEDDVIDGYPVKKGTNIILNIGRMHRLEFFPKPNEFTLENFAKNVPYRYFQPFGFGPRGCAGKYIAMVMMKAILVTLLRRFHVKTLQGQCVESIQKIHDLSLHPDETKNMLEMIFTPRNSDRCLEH
Briefly: Aromatase activity alone, tritiated water method in JEG-3 cells. The class given is cell-based. The conditions noted are these: footnote a: aromatase activity alone, nd: not detected, read-out: Aromatase activity IC50 (nM) ± S.E.M. Here is the method:
The JEG-3 cell line, derived from a human placental choriocarcinoma, constitutively overexpresses human aromatase and represents a relevant model for assaying putative aromatase inhibitors in vitro. Aromatase activity was determined by the tritiated water method. In brief, cells were first seeded into 96-well microplates in decomplemented fetal calf serum (dFCS) supplemented medium. 24 hours later, cells were rinsed and fresh medium containing 1β-^3H-androstenedione as aromatase substrate was added together with test compounds at concentrations ranging from 10^−12 M to 10^−5 M. After 2 hours of incubation, a fraction of the medium was transferred to homologous new 96-well microplates and a dextran-coated charcoal solution was added to each well. Following standing on ice for 10 minutes, microplates were centrifuged (1500 g; 4° C.). All steroids, including the radioactive substrate and the newly biosynthesized estrogens, were adsorbed on charcoal; only ^3H-water specifically formed during aromatisation of 1β-^3H-androstenedione, remained in the supernatant. The radioactivity in the supernatant was measured by liquid scintillation counting. In parallel, cell solubilization was performed in ethylenediamine tetraacetate solution. […] Finally, aromatase activity was expressed in fmoles of ^3H-water formed/2 hours/μg DNA and aromatase inhibition as a percentage of control activity without inhibitor.

The target in data set [2] is T1, human aromatase. Put plainly: Dual aromatase and steroid sulfatase activities in JEG-3 cells: aromatase readout. The data set is classed as cell-based. The conditions noted are these: footnote c: dual aromatase and sulfatase activity, nd: not detected, read-out: Aromatase activity IC50 (nM) ± S.E.M. Here is the method: Assays were carried out with cells in logarithmic growth phase on 96-well microplates. 24 h before studies, cells were seeded in decomplemented fetal calf serum (dFCS) supplemented medium. The medium was removed 24 h later and cells were rinsed with PBS to eliminate any trace of dFCS. Then, ^3H-E1S was added in dFCS free medium, followed by test compounds at concentrations ranging from 10^−12 M to 10^−5 M. After 4 h of treatment, the medium was transferred into 96-deep-well microplates and centrifuged at 200×g for 10 min to pellet cells before toluene extraction. A fraction of the medium was used for toluene extraction in order to separate the conjugated substrate from non-conjugated products. The radioactivity in the toluene phase was measured by liquid scintillation counting. […] Finally, estrone sulfatase activity was expressed in pmoles of ^3H-E1+^3H-E2 formed/4 hours/mg DNA and estrone sulfatase inhibition as a percentage of control activity without inhibitor.
In order to evaluate the inhibitory potency of DASI compounds in parallel on both human aromatase and steroid sulfatase activities, a new in vitro model was set up using JEG-3 cells. The experimental conditions of the steroid sulfatase model previously described was adopted with slight modifications: the presence of the two substrates ^3-HE1S and 1β-^3H-androstenedione into the medium and an incubation period of 2 hours. Results were expressed in pmoles of product formed (^3H-E1+^3H-E2 or ^3H2O)/2 hours/mg DNA (Table 1).

Take `N#Cc1ccc(N(Cc2ccc(O)cc2)n2ccnc2)cc1` [Ex 11, 4-[N-(4-hydroxyphenylmethyl)-N-(1H-imidazol-1-yl)amino]benzonitrile]: on human aromatase [1], the IC50 is 0.17 ± 0.01 nM. For the compound `N#Cc1ccc(N(Cc2ccc(O)c(Cl)c2)n2ccnc2)cc1` [Ex 12, 4-[N-(3-chloro-4-hydroxyphenylmethyl)-N-(1H-imidazol-1-yl)amino]benzonitrile], the melting point amounted to 195 °C. In turn, `N#Cc1ccc(N(Cc2ccc(O)c(Br)c2)n2ccnc2)cc1` [Ex 13, 4-[N-(3-bromo-4-hydroxyphenylmethyl)-N-(1H-imidazol-1-yl)amino]benzonitrile] displayed a melting point of 198 °C. For the same compound, at human aromatase [1], the IC50 worked out at 0.17 ± 0.03 nM. Moreover, on human aromatase [2], the IC50 was 0.05 ± 0.02 nM.

Consider `COc1cc(CN(c2ccc(C#N)cc2)n2ccnc2)ccc1O` [Ex 14, 4-[N-(4-hydroxy-3-methoxyphenylmethyl)-N-(1H-imidazol-1-yl)amino]benzonitrile], for which the melting point turned out to be 215 °C. The IC50 at human aromatase [1] was found to be 0.21 ± 0.05 nM. Take `N#Cc1ccc(N(Cc2c(F)c(F)c(O)c(F)c2F)n2ccnc2)cc1` [Ex 15, 4-[N-(2,3,5,6-tetrafluoro-4-hydroxyphenylmethyl)-N-(1H-imidazol-1-yl)amino]benzonitrile]: the melting point came out at 243 °C. Still for that read-out and setting: with `N#Cc1ccc(N(Cc2ccc(O)c(C=O)c2)n2ccnc2)cc1` [Ex 16, 4-[N-(3-formyl-4-hydroxyphenylmethyl)-N-(1H-imidazol-1-yl)amino]benzonitrile] the figure was 160 °C; with `N#Cc1ccc(N(Cc2ccc(Cl)nc2)n2ccnc2)cc1` [Ex 18, 4-{N-[(6-chloropyridin-3-yl)methyl]-N-(1H-imidazol-1-yl)amino}benzonitrile], 156 °C; with `N#Cc1ccc(N(Cc2ccc(S(N)(=O)=O)cc2)n2ccnc2)cc1` [Ex 19, 4-{[N-(4-cyanophenyl)-N-(1H-imidazol-1-yl)amino]methyl}benzene sulfonamide], 150 °C.

The compound `N#Cc1ccc(N(Cc2ccc(O)c([N+](=O)[O-])c2)n2ccnc2)cc1` [Ex 20, 4-[N-(4-hydroxy-3-nitrophenylmethyl)-N-(1H-imidazol-1-yl)amino]benzonitrile] came in with a melting point of 205 °C. In addition, the IC50 at human aromatase [1] was determined as 0.3 nM. Turning to `COc1ccc(CN(c2ccc(C#N)cc2)n2ccnc2)cc1C(=O)O` [Ex 21, 5-{[N-(4-cyanophenyl)-N-(1H-imidazol-1-yl)amino]methyl}-2-methoxybenzoic acid], the melting point is 187 °C.

Consider `N#Cc1ccc(N(c2ccc([N+](=O)[O-])cc2)n2ccnc2)cc1` [Ex 22, 4-[N-(1H-imidazol-1-yl)-N-(4-nitrophenyl)amino]benzonitrile], for which the IC50 at human aromatase [1] turned out to be 0.32 ± 0.4 nM. For `N#Cc1ccc(N(C(=O)c2ccc(Cl)nc2)n2ccnc2)cc1` [Ex 23, 6-chloro-N-(4-cyanophenyl)-N-(1H-imidazol-1-yl)nicotinamide], the melting point was found to be 132 °C. As for `N#Cc1ccc(N(C(=O)Cc2ccc(F)cc2)n2ccnc2)cc1` [Ex 24, N-(1H-imidazol-1-yl)-N-(4-cyanophenyl)-2-(4-fluorophenyl)acetamide], the melting point amounted to 131 °C. With `N#Cc1ccc(N(C(=O)CCc2ccc(O)cc2)n2ccnc2)cc1` [Ex 26, N-(4-cyanophenyl)-3-(4-hydroxyphenyl)-N-(1H-imidazol-1-yl)propanamide], the melting point stood at 172 °C. In addition, the IC50 on human aromatase [1] amounted to 50.6 nM. In turn, `COc1ccc2c(CC(=O)N(c3ccc(C#N)cc3)n3ccnc3)csc2c1` [Ex 29, N-(4-cyanophenyl)-N-(1H-imidazol-1-yl)-2-(6-methoxy-benzothien-3-yl)acetamide] came in with a melting point of 104 °C.

`COc1ccc2c(CN(c3ccc(C#N)cc3)n3ccnc3)csc2c1` [Ex 30, 4-{N-[1H-imidazol-1-yl]-N-[(6-methoxy-benzothien-3-yl)methyl]amino}benzonitrile]: the IC50 at human aromatase [2] turned out to be 0.06 nM. As for `N#Cc1ccc(N(C(=O)Cc2csc3cc(O)ccc23)n2ccnc2)cc1` [Ex 34, N-(4-cyanophenyl)-N-(1H-imidazol-1-yl)-2-(6-hydroxy-benzothien-3-yl)acetamide], the melting point was determined as 179 °C. Regarding `N#Cc1ccc(N(Cc2ccc(O)c(N)c2)n2ccnc2)cc1` [Ex 35, 4-[N-(3-amino-4-hydroxy-phenylmethyl)-N-(1H-imidazol-1-yl)amino]benzonitrile], on human aromatase [2], the IC50 came to 2.2 ± 0.7 nM. Compound `N#Cc1ccc(N(CCOc2ccc(O)cc2)n2ccnc2)cc1` [Ex 36, 4-{N-[2-(4-hydroxyphenoxy)ethyl]-N-(1H-imidazol-1-yl)amino}benzonitrile] yielded a melting point of 188 °C. Moreover, the IC50 at human aromatase [2] amounted to 0.61 ± 0.21 nM. The matching figures for `N#Cc1ccc(N(n2ccnc2)S(=O)(=O)c2ccc(O)cc2)cc1` [Ex 37, N-(4-cyanophenyl)-N-(1H-imidazol-1-yl)-4-hydroxybenzensulfonamide]: 248 °C and 52 ± 9.6 nM.

As for `N#Cc1ccc(N(Cc2cc3ccc(O)cc3s2)n2ccnc2)cc1` [Ex 39, 4-[N-[(6-hydroxy-benzothien-2-yl)methyl]-N-(1H-imidazol-1-yl)amino]benzonitrile], the melting point turned out to be 230 °C. `N#Cc1ccc(N(c2ccc(N)cc2)n2ccnc2)cc1` [Ex 40, 4-[N-(4-aminophenyl)-N-(1H-imidazol-1-yl)amino]benzonitrile]: the IC50 at human aromatase [1] came out at 0.67 ± 0.1 nM. For the compound `N#Cc1ccc(N(C(=O)c2cc3cc(N)ccc3s2)n2ccnc2)cc1` [Ex 41, 5-Amino-[N-(4-cyanophenyl)-N-(1H-imidazol-1-yl)]-benzothiophene-2-carboxamide], the IC50 at human aromatase [2] stood at 4.3 nM. The compound `N#Cc1ccc(N(c2ccc(NS(N)(=O)=O)cc2)n2ccnc2)cc1` [Ex 49, N-{4-[N-(4-cyanophenyl)-N-(1H-imidazol-1-yl)amino]phenyl}sulfamide] came in with a melting point of 121 °C. The same measure, in the same setting: with `N#Cc1ccc(N(Cc2ccc(OS(N)(=O)=O)cc2NS(N)(=O)=O)n2ccnc2)cc1` [Ex 54, Sulfamic acid 3-(aminosulfonyl)amino-4-{[N-(4-cyanophenyl)-N-(1H-imidazol-1yl)amino]methyl}phenyl ester] the figure was 197 °C; with `N#Cc1ccc(N(C2=CS(=O)(=O)c3cc(OS(N)(=O)=O)ccc32)n2ccnc2)cc1` [Ex 56, Sulfamic acid 3-[N-(4-cyanophenyl)-N-(1H-imidazol-1yl)amino]-1,1-dioxido-benzothien-6-yl ester], 172 °C; with `N#Cc1ccc(N(Cc2csc3cc(OS(N)(=O)=O)ccc23)n2ccnc2)cc1` [Ex 58, Sulfamic acid 3-{[N-(4-cyanophenyl)-N-(1H-imidazol-1yl)amino]methyl}-benzothien-6-yl ester], 193 °C. The same measure, in the same setting: with `N#Cc1ccc(N(Cc2cc3ccc(OS(N)(=O)=O)cc3s2)n2ccnc2)cc1` [Ex 59, Sulfamic acid 2-{[N-(4-cyanophenyl)-N-(1H-imidazol-1yl)amino]methyl}-benzothien-6-yl ester] the figure was 178 °C.

On to `N#Cc1ccc(N(Cc2ccc3c(c2)CNS(=O)(=O)O3)n2ccnc2)cc1` [Ex 61, 4-[N-[(2,2-dioxido-3,4-dihydro-1,2,3-benzoxathiazin-6-yl)methyl]-N-(1H-imidazol-1-yl)amino]benzonitrile], for which the IC50 on human aromatase [1] came out at 1.06 ± 0.21 nM. In the case of `N#Cc1ccc(N(Cc2ccc(O)c(C(=O)O)c2)n2ccnc2)cc1` [Ex 62, 5-{[N-(4-cyanophenyl)-N-(1H-imidazol-1-yl)amino]methyl}-2-hydroxybenzoic acid], at human aromatase [2], the IC50 came to 81.8 nM.
